Measurements as given in patent publication US20240122180A1, “FUNGICIDAL HALOMETHYL KETONES AND HYDRATES AND THEIR MIXTURES” (FMC Corporation, priority 2020, published 2024).
Marks after values point to notes of the source that are not given here.

Tests used:
Type in all cases: in vivo
Conditions in all cases: 100 = 100% disease control
[1] = tested on: Phakopsora pachyrhizi (the causal agent of Asian soybean rust); test: Test A: preventive spray on soybean seedlings, visual disease rating (100 = 100% control; * 50 ppm, ** 10 ppm, *** 250 ppm)
Summary of the method: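 Soybean seedlings sprayed to run-off with compound suspended in acetone/water with 250 ppm PEG400 surfactant, inoculated next day with P. pachyrhizi spores. Kept 24 h saturated at 22 °C, then 8 days at 22 °C before visual rating of disease control (0-100) relative to controls.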

[2] = tested on: Puccinia recondita f. sp. tritici (the causal agent of wheat leaf rust); test: Test B: preventive spray on wheat seedlings, disease rating (100 = 100% control; * 50 ppm, ** 10 ppm, *** 250 ppm)
Summary of the method: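 Wheat seedlings sprayed to run-off with compound in acetone/water (50/50) containing 250 ppm PEG400, inoculated next day with Puccinia recondita f. sp. tritici spores. Held 24 h saturated at 20° C, then 6 days at 20° C; disease control rated 0–100 relative to controls.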

[3] = tested on: Uncinula necator (the causal agent of grape powdery mildew); test: Test C: preventive spray on grape seedlings, disease rating (100 = 100% control; * 50 ppm, ** 10 ppm, *** 250 ppm)
Text: (§1) General protocol for preparing test suspensions for Tests A-E: the test compounds were first dissolved in acetone in an amount equal to 3% of the final volume and then suspended at the desired concentration (in ppm) in acetone and purified water (50/50 mix by volume) containing 250 ppm of the surfactant […] (polyhydric alcohol esters). The resulting test suspensions were then used in Tests A-E.
The test solution was sprayed to the point of run-off on grape seedlings. The following day the seedlings were inoculated with a spore suspension of Uncinula necator (the causal agent of grape powdery mildew) and incubated in a growth chamber at 20° C. for 12 days, after which time disease ratings were made.
(§2) Results for Tests A-E are given in Table A. In the Table, a rating of 100 indicates 100% disease control and a rating of 0 indicates no disease control (relative to the controls). An asterisk “*” or a double asterisk “**” or a triple asterisk “***” next to the rating value indicates a 50 ppm, 10 ppm and 250 ppm test suspension was used, respectively. A dash (-) indicates the compound was not tested.

[4] = tested on: Zymoseptoria tritici (the causal agent of wheat leaf blotch); test: Test D: preventive spray on wheat seedlings, disease rating (100 = 100% control; * 50 ppm, ** 10 ppm, *** 250 ppm)
Text: as §1
The test solution was sprayed to the point of run-off on wheat seedlings. The following day the seedlings were inoculated with a spore suspension of Zymoseptoria tritici (the causal agent of wheat leaf blotch) and incubated in a saturated atmosphere at 24° C. for 48 h, and then moved to a growth chamber at 20° C. for 17 days, after which time disease ratings were made.
as §2

[5] = tested on: Blumeria graminis f. sp. tritici (the causal agent of wheat powdery mildew); test: Test E: preventive spray on wheat seedlings, visual disease rating (100 = 100% control; * 50 ppm, ** 10 ppm, *** 250 ppm)
Text: as §1
The test suspension was sprayed to the point of run-off on wheat seedlings. The following day the seedlings were inoculated with a spore dust of Blumeria graminis f. sp. tritici, (also known as Erysiphe graminis f. sp. tritici, the causal agent of wheat powdery mildew) and incubated in a growth chamber at 20° C. for 8 days, after which time visual disease ratings were made.
as §2

[6] = 50 ppm test suspension, 0 = no control
[7] = 250 ppm test suspension, 0 = no control
[8] = 10 ppm test suspension, soybean seedlings
[9] = 10 ppm test suspension, wheat seedlings
[10] = 250 ppm test suspension, grape seedlings
[11] = 250 ppm test suspension, wheat seedlings
[12] = 250 ppm test suspension, soybean seedlings
[13] = 50 ppm test suspension, soybean seedlings
[14] = 50 ppm test suspension, wheat seedlings
[15] = 50 ppm test suspension, grape seedlings

SMILES	Test A disease control rating [1, 8] [%]	Test B disease control rating [2, 9] [%]	Test C disease control rating [3, 10]	Test D disease control rating [4, 11]	Test E disease control rating [5, 11]	other results
CCOC(=O)c1cnn(Cc2ccc(OCC(O)(O)C(F)(F)F)cc2F)c1 [Compound 376]	–	–	–	–	–	Test A disease control rating [1, 6]: 100%; Test B disease control rating [2, 6]: 92%; Test C disease control rating [3, 6]: 36%; Test D disease control rating [4, 7]: 98*** %; Test E disease control rating [5, 7]: 99*** %
CCOC(=O)c1cnn(Cc2c(F)c(F)c(OCC(O)(O)C(F)(F)F)c(F)c2F)c1 [Compound 465]	–	–	–	–	–	Test A disease control rating [1, 6]: 100%; Test B disease control rating [2, 6]: 100%; Test C disease control rating [3, 7]: 73*** %; Test D disease control rating [4, 7]: 59*** %; Test E disease control rating [5, 7]: 91*** %
C#CCOC(=O)c1cnn(Cc2ccc(OCC(O)(O)C(F)(F)F)cc2)c1 [compound 44]	97	85	16*** %	98*** %	91*** %	–
CCOC(=O)c1cnn(Cc2ccc(C(O)CC(O)(O)C(F)(F)F)cc2)c1 (centres unmarked) [compound 51]	0	0	81*** %	3*** %	0*** %	–
CCOC(=O)c1cnn(Cc2ccc(O/C=C(\OC(C)C)C(F)(F)F)cc2)c1 [compound 57]	–	–	64*** %	28%	95*** %	Test A disease control rating [1, 12]: 100%; Test B disease control rating [2, 11]: 0%
O=C(NCC(F)(F)F)c1csc(Cc2ccc(OCC3(C(F)(F)F)OCCO3)cc2)n1 [compound 70]	–	–	86%	91%	83%	Test A disease control rating [1, 12]: 100%; Test B disease control rating [2, 11]: 100%
CC(=O)c1ccc(OCC(O)(O)C(F)(F)F)cc1 [compound 80]	–	–	–	96*** %	99*** %	Test A disease control rating [1, 13]: 99%; Test B disease control rating [2, 14]: 100%; Test C disease control rating [3, 15]: 0%
N#Cc1ccc(OCC2(C(F)(F)F)OCCO2)cc1 [compound 98]	–	–	31%	77%	0%	Test A disease control rating [1, 12]: 100%; Test B disease control rating [2, 11]: 100%
CCOC(=O)c1cnn(Cc2ccc(SCC3(C(F)(F)F)OCCO3)cc2)c1 [compound 115]	–	–	58%	19%	56%	Test A disease control rating [1, 12]: 0%; Test B disease control rating [2, 11]: 0%
CCO/C(=C\Oc1ccc(Cn2cc(C(=O)NC(C)C)cn2)cc1)C(F)(F)F [compound 118]	–	–	77*** %	13*** %	76*** %	Test A disease control rating [1, 13]: 100%; Test B disease control rating [2, 14]: 0%
CCOC(=O)c1cnnn1Cc1ccc(O/C=C(\OCC)C(F)(F)F)cc1 [compound 120]	–	–	–	–	–	Test A disease control rating [1, 13]: 100%; Test B disease control rating [2, 14]: 0%; Test C disease control rating [3, 15]: 23%; Test D disease control rating [4, 14]: 17%; Test E disease control rating [5, 14]: 98%
CCO/C(=C\Oc1ccc(Cn2cc(C(=O)OC)cn2)cc1)C(F)(F)F [compound 138]	100	0	–	31*** %	99*** %	Test C disease control rating [3, 15]: 100* %
N#Cc1ccc(OCC(O)(O)C(F)(F)F)cc1 [compound 142]	92	100	19*** %	100*** %	99*** %	–
CCO/C(=C\Oc1ccc(Cn2cc(Br)cn2)cc1)C(F)(F)F [compound 183]	0	0	70*** %	66*** %	0*** %	–
C#CCOC(=O)c1cnn(Cc2ccc(O/C=C(\OCC)C(F)(F)F)cc2)c1 [compound 185]	100	0	–	0*** %	95*** %	Test C disease control rating [3, 15]: 100* %
N#Cc1cnn(Cc2ccc(OCC(O)(O)C(F)(F)F)cc2)c1 [compound 206]	–	–	34*** %	93*** %	93*** %	Test A disease control rating [1, 13]: 100%; Test B disease control rating [2, 14]: 98%
CCO/C(=C\Oc1ccc(Cn2cc(C(=O)OCC(C)=O)cn2)cc1)C(F)(F)F [compound 216]	100	0	20*** %	37*** %	87*** %	–
CCCOC(=O)c1cnn(Cc2ccc(O/C=C(\OCC)C(F)(F)F)cc2)c1 [compound 217]	100	0	75*** %	23*** %	96*** %	–
CCO/C(=C\Oc1ccc(Cn2cc(C(=O)OCC(C)C)cn2)cc1)C(F)(F)F [compound 219]	100	0	92*** %	0*** %	83*** %	–
CCO/C(=C\Oc1ccc(Cn2cc(C(=O)OCC3CC3)cn2)cc1)C(F)(F)F [compound 220]	100	0	85*** %	28*** %	92*** %	–
CCO/C(=C\Oc1ccc(Cn2cc(C(=O)OCCOC)cn2)cc1)C(F)(F)F [compound 222]	100	0	38*** %	17*** %	90*** %	–
C=C(C)COC(=O)c1cnn(Cc2ccc(O/C=C(\OCC)C(F)(F)F)cc2)c1 [compound 242]	100	0	87*** %	27*** %	69*** %	–
CC#CCOC(=O)c1cnn(Cc2ccc(O/C=C(\OCC)C(F)(F)F)cc2)c1 [compound 243]	100	0	29*** %	0*** %	56*** %	–
CCO/C(=C\Oc1ccc(Cn2cc(C(=O)OCCC#N)cn2)cc1)C(F)(F)F [compound 245]	100	0	24*** %	18*** %	76*** %	–
C=CCOC(=O)c1cnn(Cc2ccc(O/C=C(\OCC)C(F)(F)F)cc2)c1 [compound 246]	100	0	85*** %	12*** %	90*** %	–
O=C(NCC1CC1)c1cnc(Cc2ccc(OCC(O)(O)C(F)(F)F)cc2)o1 [compound 247]	13	0	21*** %	79*** %	21*** %	–
CCO/C(=C\Oc1cccc(Cn2cc(C(=O)NC)cn2)c1)C(F)(F)F [compound 403]	–	–	–	–	–	Test A disease control rating [1, 6]: 54%; Test C disease control rating [3, 7]: 74*** %; Test D disease control rating [4, 7]: 17*** %; Test E disease control rating [5, 7]: 0*** %
